Test results as given in patent US20070207975A1, “Materials and methods for treating and preventing Her-2/neu overexpressing, FAS-elevated cancer cells” (EVANSTON NORTHWESTERN HEALTHCARE, priority 2006, published 2007).
Like-named read-outs stand apart in the source and are kept apart here.

Key:
[1] = tested on: Wild-type Her-2/neu promoter; test: Luciferase reporter driven by wild-type Her-2/neu promoter, transient transfection; format: cell-based, human; conditions: for Luciferase activity relative to vehicle-treated wild-type promoter cells: GLA 10 μg/mL for 24 hours; for inhibition at 20 µM: Homo sapiens, OA 20 μM, 24 hours, read-out: reduction (inhibition) of Her-2/neu gene promoter activity
Protocol: (§1) FIG. 11. Luciferase activity in transiently transfected cells. Luciferase activity was assayed in cells that were transiently transfected with a pGL2-Luc construct containing a luciferase reporter gene under the control of a Her-2/neu promoter fragment containing a wild-type (top panel, left) or mutant (top panel, right) PEA3 binding site as described herein. The magnitude of activation in Her-2/neu promoter-luciferase-transfected cells was determined after normalization of the luciferase activity obtained in cells co-transfected with equivalent amounts of the empty pGL2-Luciferase vector lacking the Her-2/neu promoter (-luciferase) and the internal control plasmid pRL-CMV. This control value was used to calculate the relative change in the transcriptional activities of Her-2/neu-promoter-luciferase-transfected cells in response to treatments after normalization to pRL-CMV. The activity of the wild-type promoter in untreated control cells was defined as 100%. […] One-factor ANOVA was used to analyzed differences in the percentages of luciferase activity between the various treatment groups.
The luciferase activities reported in Table 3 were assayed in cells that were transiently transfected with a pGL2-luciferase (Promega Inc., Madison, Wis.) construct containing a luciferase reporter gene under the control of a Her-2/neu promoter fragment containing a wild-type or mutant PEA3 binding site, as previously described by Xing et al. (36), incorporated herein by reference. […] Luciferase activity from cell extracts was detected with a Luciferase Assay System (Promega Inc.).
(§2) To conduct Her-2/neu promoter activity assays, cells were initially transfected using FuGENE 6 transfection reagent (Roche Biochemicals, Indianapolis, Ind.) as directed by the manufacturer. Overnight-serum starved cancer cells seeded into 24-well plates (˜5×10^4 cells/well) were transfected in low-serum (0.1% FBS) media with 1.5 μg/well of the pGL2-luciferase (Promega, Madison, Wis.) construct containing a luciferase reporter gene driven by either an intact (Her-2/neu wild-type PEA3-binding site-luciferase) or by a mutated (Her-2/neu mutated PEA3-binding site-luciferase) Her-2/neu promoter fragment along with […] of the internal control plasmid pRL-CMV, which was used to correct for transfection efficiency. […] Approximately 24 hours after treatments, luciferase activities from cell extracts were detected with a luciferase Assay System following manufacturer's instructions (Promega, Madison, Wis., USA) using a Victor^2™ Multilabel Counter (Perkin-Elmer Life Sciences).

[2] = tested on: AP-2; test: AP-2 expression levels; format: cell-based, human
[3] = tested on: Lipogenic Cells; test: Effect of fatty acids, lipogenic cells (Table 2); format: cell-based
[4] = tested on: Breast Cancer Cells; test: Effect of fatty acids, breast cancer cells (Table 2); format: cell-based; conditions: FAS named only for oleic acid
[5] = tested on: BT-474 cells; test: MTT cell viability / isobologram analysis, BT-474; format: cell-based, human
Protocol: (§3) FIG. 10. […] Cells in exponential growth were harvested, seeded at a concentration of ˜5×10^3 cells/200 μl/well into 96-well plates and allowed to attach overnight. […] Agents were studied in combination concurrently, and they were not renewed during the entire period of cell exposure. After treatment, the medium was removed and replaced by fresh drug-free medium (100 μl/well), and MTT (5 mg/ml in phosphate-buffered saline [PBS]) was added to each well at a 1/10 volume. After 2-3 hours at 37° C., the supernatants were removed, 100 μl of dimethylsulfoxide was added to each well, and the plates were agitated. Absorbances were measured at 570 nm using a multiwell plate reader (Model Anthos Labtec 2010 1.7 reader). The cell viability effects from exposure of cells to each agent alone and to their combination were analyzed by generating concentration-effect curves as a plot of the fraction of unaffected (surviving) cells versus drug concentration. Dose-response curves were plotted as percentages of the control cell absorbances, which were obtained from control wells treated with appropriate concentrations of vehicles that were processed simultaneously. For each treatment, cell viability was evaluated as a percentage using the following equation: (A570 of treated sample/A570 of untreated sample)×100. […] All statistical tests were two-sided. […]

[6] = tested on: Mutant Her-2/neu promoter; test: Luciferase reporter driven by Her-2/neu promoter with mutated PEA3 binding site; format: cell-based, human; conditions: for Luciferase activity relative to vehicle-treated wild-type promoter cells: mutant promoter, GLA 10 μg/mL for 24 hours
Protocol: as §1
The luciferase activities reported in Table 3 were assayed in cells that were transiently transfected with a pGL2-luciferase (Promega Inc., Madison, Wis.) construct containing a luciferase reporter gene under the control of a Her-2/neu promoter fragment containing a wild-type or mutant PEA3 binding site, as previously described by Xing et al. (36), incorporated herein by reference. Cells were transfected using FuGENE 6 transfection reagent (Roche Biochemicals, Indianapolis, Ind.) as directed by the manufacturer and were treated with vehicle (ethanol; EtOH) or γ-linolenic acid (10 μg/mL for 24 hours). Luciferase activity from cell extracts was detected with a Luciferase Assay System (Promega Inc.).
To examine whether the increased PEA3 levels might mediate the inhibition of Her-2/neu transcription in GLA-treated cells, the effect of GLA on transcription from a Her-2/neu promoter bearing a mutated PEA3 binding sequence, at −33 to −28, that is known to abolish PEA3 binding (36, incorporated herein by reference) was investigated. For this analysis we used the same luciferase reporter gene construct described above but containing the HER-2/neu promoter mutation at the PEA3 binding site (5′-GAG GAA-3′ at −33 to −28 changed to 5′-GAG CTC-3′).
as §2

[7] = tested on: Her-2/neu mRNA; test: Semiquantitative RT-PCR of Her-2/neu transcripts; format: cell-based, human
[8] = tested on: SK-Br3 cells; test: MTT cell viability / isobologram analysis, SK-Br3; format: cell-based, human
Protocol: as §3

With `CCCCCC=CCC=CCC=CCCCCC(=O)O` [GLA, 6,9,12-octadecatrienoic acid] the “Luciferase activity relative to vehicle-treated wild-type promoter cells” value ([1]; BT-474) was 35% (95% CI = 33-37%), the “Luciferase activity relative to vehicle-treated wild-type promoter cells” value ([1]; MDA-MB-231) was 80% (95% CI = 75-85%) and the “Luciferase activity relative to vehicle-treated wild-type promoter cells” value ([1]; MDA-MB-453) was 26% (95% CI = 25-27%). The “Luciferase activity relative to vehicle-treated wild-type promoter cells” value ([1]; NCI-N87) was 38% (95% CI = 34-42%), the “Luciferase activity relative to vehicle-treated wild-type promoter cells” value ([1]; SK-Br3) was 54% (95% CI = 51-57%) and the “Luciferase activity relative to vehicle-treated wild-type promoter cells” value ([1]; SK-OV3) was 21% (95% CI = 16-26%). For the same compound, the AP-2 expression ([2]; GLA-treated cells) was “does not appear to regulate”, the “Effect of Fatty Acids: Lipogenic Cells” value [3] was “No effect” and the “Effect of Fatty Acids: Breast Cancer Cells” value [4] was “Potent Down-regulator”. The “increase in sensitivity to trastuzumab” value ([5]; concurrent 10 μg/ml GLA) was “approximately 30 fold”, the “Luciferase activity relative to vehicle-treated wild-type promoter cells” value ([6]; BT-474) was 12% (95% CI = 9-15%) and the “Luciferase activity relative to vehicle-treated wild-type promoter cells” value ([6]; MDA-MB-231) was 61% (95% CI = 59-63%). For the same compound, the “Luciferase activity relative to vehicle-treated wild-type promoter cells” value ([6]; MDA-MB-453) was 11% (95% CI = 3-19%), the “Luciferase activity relative to vehicle-treated wild-type promoter cells” value ([6]; NCI-N87) was 19% (95% CI = 12-26%) and the “Luciferase activity relative to vehicle-treated wild-type promoter cells” value ([6]; SK-Br3) was 21% (95% CI = 18-24%). The “Luciferase activity relative to vehicle-treated wild-type promoter cells” value ([6]; SK-OV3) was 14% (95% CI = 6-22%), the “transcription of the Her-2/neu gene (RT-PCR)” value ([7]; BT-474 and SK-Br3, GLA 5, 10, or 20 μg/ml for 48 hours) was “Strong, dose-dependent decreases” and the “increase in sensitivity to trastuzumab” value ([8]; concurrent 10 μg/ml GLA) was ~40 fold.

In the case of `CCCCCCCCC=CCCCCCCCC(=O)O` [OA, 9-octadecenoic acid], the inhibition at 20 µM ([1]; NCI-N87, 24 h, NCI-N87) is reported as 55%, the inhibition at 20 µM ([1]; SK-BR-3, 24 h, SK-Br3) is reported as ≤ 56% and the inhibition at 20 µM ([1]; SK-OV-3, 24 h, SK-OV3) is reported as ≤ 75%. The “reduction of Her-2/neu gene promoter activity” value ([1]; MCF-7/Her2-18 transfectants, OA supplementation) was “up to 22%”, the “reduction of wild-type Her-2/neu promoter luciferase reporter activity” value ([1]; MCF-7/neo cells, OA treatment) was “up to 12%” and the “reduction of Her-2/neu promoter activity” value ([1]; MCF-7 breast cancer cells (physiological Her-2/neu levels), OA) was < 20%. For the same compound, the AP-2 expression levels ([2]; Her-2/neu-overexpressing cancer cells, OA supplementation) was “failed to modulate”, the “Effect of Fatty Acids: Lipogenic Cells” value [3] was “No effect” and the “Effect of Fatty Acids: Breast Cancer Cells” value [4] was “Down-regulates”. For the same compound, the “sensitization factor (IC50 without OA / IC50 with OA)” value ([5]; 10 mM OA, sensitization to trastuzumab) was 40 fold, the “regulation of luciferase reporter driven by promoter with mutated PEA3 site” value ([6]; OA-supplemented SK-Br3, SK-OV3 and NCI-N87 cells) was “not subject to negative regulation” and the “expression levels of Her-2/neu transcripts (RT-PCR)” value ([7]; OA-treated SK-Br3 cells) was “significant reduction”. The “sensitization factor (IC50 without OA / IC50 with OA)” value ([8]; OA co-exposure, sensitization to trastuzumab) was 27 fold.
